The structures appear in SMILES notation. Converted amounts (≈) assume the structure as drawn.

The assay has as its system Porphyromonas gingivalis. As to the kind of experiment: Antibacterial MIC testing (agar dilution, anaerobic). The note with it: supplemented Brucella agar, 44 h, 36° C. It counts as cell-based. On the procedure: Epetraborole was placed is a stock solution and stored at −70° C. Serial two-fold dilutions were prepared on the day of testing.
Porphyromonas gingivalis organisms were recovered from clinical samples, identified by standard methods or by partial sequencing of the 16S gene and stored in 20% skim milk at −70° C. All isolates were taken from the freezer and subcultured at least twice on supplemented Brucella agar to ensure good growth. Inocula were prepared by direct suspensions of cells from 48 h cultures into saline or Brucella broth.
For all tested organisms, supplemented Brucella agar deeps were obtained from Anaerobe Systems (Morgan Hill, CA). Defibrinated sheep blood (Hardy Diagnostics, Santa Maria, CA) was frozen and thawed to produce laked blood. On the day of testing, laked blood and the antimicrobial agents were added to the tubes of molten agar before pouring the agar dilution plates. The strains were applied to the plates using a Steers multipronged inoculator for a final concentration of approximately 10^5 cfu/spot. After 44 h incubation at 36° C. in the anaerobic chamber incubator, the plates were examined for growth, and the MICs interpreted.
In general terms: In agar dilution, organisms are placed on agar that contains the substance at set levels.

`NC[C@H]1OB(O)c2c(OCCCO)cccc21` [Epetraborole]: the MIC (commonly the lowest concentration that inhibits growth of the organism) is 2 µg/mL (≈ 8.44 µM) (Po. gingivalis clinical isolate RMA# 15676 (Abd-perit.fld)), 2 µg/mL (≈ 8.44 µM) (Po. gingivalis clinical isolate RMA# 15913 (Abd-perit.fld)), 0.125 µg/mL (≈ 0.527 µM) (Po. gingivalis clinical isolate RMA# 16269 (Abd-perit.fld)) and 0.5 µg/mL (≈ 2.11 µM) (Po. gingivalis clinical isolate RMA# 16389 (Abd-perit.fld)).

The record behind these values is patent US20250000883A1, “TREATING NEUROINFLAMMATORY CONDITIONS” (AN2 Therapeutics, Inc., priority 2021, published 2025).
